From the supplement of paper PMC13380429

Columns and labels:
U2OS [1] = assay: relative viability EC50 (midpoint between 100% and the lowest measured viability); higher = less toxic; settings: 72 h
Caco-2 [2] = assay: as above; settings: 72 h
Vero E6 [3] = assay: as above; settings: 72 h
HepG2 [4] = assay: as above; settings: 72 h
A549-ACE2 [5] = assay: drug-induced phospholipidosis relative to tamoxifen; higher = more phospholipidosis
U2OS [6] = assay: drug sensitivity score (DSS) for viability; higher = more toxic; extreme values may be limits of the assay; settings: 72 h
Caco-2 [7] = assay: as above; settings: 72 h
Vero E6 [8] = assay: as above; settings: 72 h
HepG2 [9] = assay: as above; settings: 72 h
[10] = test system: A549-ACE2 infected with SARS-CoV-2; assay: cell count relative to DMSO; higher = less toxic; settings: 24 h
[11] = test system: A549-ACE2 infected with SARS-CoV-2; assay: SARS-CoV-2 infection rate relative to DMSO; higher = more infection; settings: 24 h
[12] = test system: A549-ACE2 infected with SARS-CoV-2; assay: morphology score (similarity to uninfected cells); higher = more like uninfected cells; settings: 24 h
U2OS [13] = assay: cell viability relative to DMSO; higher = less toxic; settings: 72 h
Caco-2 [14] = assay: as above; settings: 72 h
Vero E6 [15] = assay: as above; settings: 72 h
HepG2 [16] = assay: as above; settings: 72 h
Calu-3 [17] = assay: relative viability EC50 (midpoint between 100% and the lowest measured viability); higher = less toxic; settings: 72 h
Calu-3 [18] = assay: drug sensitivity score (DSS) for viability; higher = more toxic; extreme values may be limits of the assay; settings: 72 h
A549-ACE2 [19] = assay: phospholipidosis EC50; higher = less potent phospholipidosis inducer
Calu-3 [20] = assay: cell viability relative to DMSO; higher = less toxic; settings: 72 h

C=C1C(=O)O[C@@H]2C[C@@]3(C)CCC[C@H](C)C3=C[C@H]12 [alantolactone]
Settings | drug sensitivity score | relative viability EC50 [µM]
Caco-2 [2] | – | > 10
Caco-2 [7] | 0 | –
HepG2 [4] | – | > 10
HepG2 [9] | 0 | –
U2OS [1] | – | > 10
U2OS [6] | 0 | –
Vero E6 [3] | – | > 10
Vero E6 [8] | 0 | –

drug-induced phospholipidosis [%], A549-ACE2 [5]
Settings | 0.3 µM | 0.833333 µM | 3.33333 µM | 6.66667 µM | 10 µM | 30 µM
24 h | 0.44 | -0.52 | -2.33 | -1.69 | -1.05 | 3.99
48 h | 0.11 | -0.81 | -1.92 | -1 | 0.04 | 3.39
72 h | 2.31 | -0.225 | -1.83 | -1.58 | 0.848 | 3.9

Settings | SARS-CoV-2 infection rate, [11] [%] | cell count, [10] [%] | cell viability, Caco-2 [14] [%] | cell viability, HepG2 [16] [%] | cell viability, U2OS [13] [%] | cell viability, Vero E6 [15] [%] | morphology score, [12]
1 nM | – | – | 94.9 | 94.8 | 99.2 | 94.7 | –
10 nM | – | – | 99 | 102 | 96.4 | 95.8 | –
100 nM | – | – | 101 | 106 | 101 | 95.8 | –
0.3 µM | 104 | 100 | – | – | – | – | 0.1
1000 nM | – | – | 99.8 | 104 | 96.4 | 96.8 | –
3 µM | 92 | 98 | – | – | – | – | -0.12
10 µM | 91 | 97 | – | – | – | – | -0.07
10000 nM | – | – | 89.7 | 117 | 96.6 | 101 | –
30 µM | 35 | 9 | – | – | – | – | 0.21

O=C(O)CCCCCCCC(=O)O [azelaic-acid]
Settings | drug sensitivity score | relative viability EC50 [µM]
Caco-2 [2] | – | > 10
Caco-2 [7] | 0 | –
HepG2 [4] | – | > 10
HepG2 [9] | 0 | –
U2OS [1] | – | > 10
U2OS [6] | 0 | –

drug-induced phospholipidosis [%], A549-ACE2 [5]
Settings | 0.3 µM | 0.833333 µM | 3.33333 µM | 6.66667 µM | 10 µM | 30 µM
24 h | -0.21 | -0.53 | -0.9 | -0.71 | -1.82 | 0.53
48 h | 0.97 | -0.84 | -1.1 | 0.62 | -0.42 | 2.28
72 h | 3.56 | 0.0211 | 0.507 | 0.701 | 1.19 | 4.29

Settings | SARS-CoV-2 infection rate, [11] [%] | cell count, [10] [%] | cell viability, Caco-2 [14] [%] | cell viability, HepG2 [16] [%] | cell viability, U2OS [13] [%] | morphology score, [12]
1 nM | – | – | 105 | 102 | 101 | –
10 nM | – | – | 97 | 92.3 | 103 | –
100 nM | – | – | 103 | 115 | 99.4 | –
0.3 µM | 94 | 103 | – | – | – | 0.2
1000 nM | – | – | 105 | 96.4 | 106 | –
3 µM | 100 | 95 | – | – | – | -0.03
10 µM | 98 | 102 | – | – | – | 0.06
10000 nM | – | – | 95.6 | 99 | 97.7 | –
30 µM | 103 | 102 | – | – | – | 0.01

Oc1ccc2c3c1O[C@H]1c4c(c5ccccc5n4Cc4ccccc4)C[C@@]4(O)[C@@H](C2)N(CC2CC2)CC[C@]314 [N-benzylnaltrindole]
Settings | drug sensitivity score | relative viability EC50 [µM]
Caco-2 [2] | – | > 10
Caco-2 [7] | 0 | –
Calu-3 [17] | – | 3.19
Calu-3 [18] | 3.3 | –
HepG2 [9] | 2.3 | –
U2OS [1] | – | > 10
U2OS [6] | 0 | –
Vero E6 [8] | 1.9 | –

drug-induced phospholipidosis [%], A549-ACE2 [5]
Settings | 0.3 µM | 0.833333 µM | 3.33333 µM | 6.66667 µM | 10 µM | 30 µM
24 h | 4.31 | 4.24 | 48.7 | 70.1 | 59 | 26.2
48 h | 5.61 | 4.16 | 44.9 | 83.7 | 102 | –
72 h | 4.1 | 4.23 | 35.4 | 81.8 | 111 | –

Settings | SARS-CoV-2 infection rate [%] | cell count [%] | cell viability [%] | morphology score | phospholipidosis EC50 [µM]
A549-ACE2 [19], 24 h | – | – | – | – | 2.62
A549-ACE2 [19], 48 h | – | – | – | – | 4.61
A549-ACE2 [19], 72 h | – | – | – | – | 6.76
Caco-2 [14], 1 nM | – | – | 88.7 | – | –
Caco-2 [14], 10 nM | – | – | 99.7 | – | –
Caco-2 [14], 100 nM | – | – | 88.5 | – | –
Caco-2 [14], 1000 nM | – | – | 99 | – | –
Caco-2 [14], 10000 nM | – | – | 86.9 | – | –
Calu-3 [20], 1 nM | – | – | 96.9 | – | –
Calu-3 [20], 10 nM | – | – | 99.8 | – | –
Calu-3 [20], 100 nM | – | – | 106 | – | –
Calu-3 [20], 1000 nM | – | – | 100 | – | –
Calu-3 [20], 10000 nM | – | – | 38.9 | – | –
HepG2 [16], 1 nM | – | – | 102 | – | –
HepG2 [16], 10 nM | – | – | 98.9 | – | –
HepG2 [16], 100 nM | – | – | 103 | – | –
HepG2 [16], 1000 nM | – | – | 100 | – | –
HepG2 [16], 10000 nM | – | – | 54.8 | – | –
U2OS [13], 1 nM | – | – | 94.9 | – | –
U2OS [13], 10 nM | – | – | 102 | – | –
U2OS [13], 100 nM | – | – | 95.9 | – | –
U2OS [13], 1000 nM | – | – | 102 | – | –
U2OS [13], 10000 nM | – | – | 89.1 | – | –
Vero E6 [15], 1 nM | – | – | 100 | – | –
Vero E6 [15], 10 nM | – | – | 96 | – | –
Vero E6 [15], 100 nM | – | – | 95.1 | – | –
Vero E6 [15], 1000 nM | – | – | 96.2 | – | –
Vero E6 [15], 10000 nM | – | – | 70.1 | – | –
[10], 0.1 µM | – | 100 | – | – | –
[10], 0.3 µM | – | 101 | – | – | –
[10], 1 µM | – | 104 | – | – | –
[10], 3 µM | – | 108 | – | – | –
[11], 0.1 µM | 96 | – | – | – | –
[11], 0.3 µM | 94 | – | – | – | –
[11], 1 µM | 90 | – | – | – | –
[11], 3 µM | 69 | – | – | – | –
[12], 0.1 µM | – | – | – | 0.1 | –
[12], 0.3 µM | – | – | – | 0.1 | –
[12], 1 µM | – | – | – | 0.24 | –
[12], 3 µM | – | – | – | 0.47 | –
